Consider six molecules from patent US9814759B2, “Pharmaceutical composition comprising recombinant hemoglobin protein or subunit-based therapeutic agent for cancer targeting treatment” (Cheer Global Ltd., priority 2014, dated 2017).

A short description of series [1]: HPLC analysis of disulfide bond cleavage under reducing condition (GSH). The series is classed as physicochemical. As to conditions: PBS buffer (pH 7.4), 37° C., GSH 0.4-1000 equiv, 0-2 hrs. The text has this: The glutathione (GSH) level is much higher in the cytoplasm of cancer cells (˜1000 equiv) when compared to blood stream (˜1 equiv). A therapeutic drug with a disulfide bond can be cleaved much more easily in the cytoplasm of cancer cells with high concentration of GSH. A high-performance liquid chromatography (HPLC) analysis for the cleavage of model compound (N-(2-mercaptoethyl)benzamide) with disulfide bond under reducing condition is shown in FIG. 12. The cleavage of model compound is observed in PBS buffer (pH 7.4) at 37° C. with different concentration of glutathione (GSH) (0.4-1000 equiv). […] In the present invention, the recombinant hemoglobin protein or recombinant hemoglobin tetramer or dimer or subunit linked with a therapeutic drug (e.g. chemotherapeutic agent, radiotherapeutic agent, anti-cancer protein drug) by a disulfide bond is prepared for cancer treatment.

Series [2] concerns liver cancer cells (HepG2). Nature of the series: Live cell time-lapse microscopy, uptake of fluorescent labeled hemoglobin subunits in cancer cells. As to conditions: with heme (+) or without heme (−), 0.1% O2, FIG. 10. The series is classed as cell-based. The text has this: The pharmaceutical composition of the present invention comprises recombinant hemoglobin protein or recombinant hemoglobin tetramer or dimer or subunit-based therapeutic agent capable of both targeting and killing the cancer cells. […] The fluorescent labeled recombinant hemoglobin subunits can also enter into the cancer cells (e.g., liver cancer cells, HepG2) and localize in there, and the result is illustrated in FIG. 10. It is expected that the chemically modified recombinant hemoglobin protein or tetramer or dimer or subunit-based therapeutic agent can also kill the cancer cells and progenitor cells/cancer stem cells effectively.
Cancer cells (HepG2) are cultured in DMEM (Invitrogen) with 10% Fetal bovine serum (FBS), 100 U/mL penicillin and 100 μg/mL streptomycin at 37° C. For normoxic condition, cells are incubated with ambient O2 concentration and 5% CO2; for hypoxic condition, cells are incubated with 0.1-0.5% O2 (Quorum FC-7 automatic CO2/O2/N2 gas mixer) and 5% CO2.
Cancer cells (e.g. HepG2 liver cancer cells) are seeded onto glass bottom microwell dishes (MatTek Corporation). Live cells at defined zooms (63×, 20×) are acquired using Zeiss Observer Z1 widefield microscope, equipped with atmospheric/temperature-controlled chamber and motorized stage for multi-positional acquisition. The incubation is performed in an enclosed live cell imaging system purged with 0.1% O2 and 5% CO2 (premixed). Cells are exposed to the fluorescent labeled recombinant hemoglobin subunits (α, β, γ1, γ2); for 15 min prior to the acquisition of images every 3 min for a period of 2 h. Images are deconvolved and compacted into time-lapse movies using the MetaMorph software (Molecular Device).

The conditions of series [3]: native human hemoglobin, comparison value; cited from earlier work.

With `O=C(NCCS)c1ccccc1` [model compound, N-(2-mercaptoethyl)benzamide], the “cleavage of disulfide bond at different GSH levels” value in series [1] was “better at high concentration of GSH (>50 equiv)”. Turning to “γ2: recombinant human hemoglobin monomer γ2 (146 amino acids), with or without heme”, in series [2], the “entry into / uptake by liver cancer cells” value is recorded as “can enter into liver cancer cells (HepG2) successfully”.

On to “native human hemoglobin: native human hemoglobin, comparison for p50”, for which, in series [3], the “p50 value (oxygen partial pressure necessary to produce 50 percent saturation of hemoglobin)” value is on record as 23-30 mm Hg. For “β: recombinant human hemoglobin monomer β (146 amino acids), with or without heme”, the “entry into / uptake by liver cancer cells” value in series [2] is reported as “can enter into liver cancer cells (HepG2) successfully”. Same read-out and setting: the same measure for “γ1: recombinant human hemoglobin monomer γ1 (146 amino acids), with or without heme”: “can enter into liver cancer cells (HepG2) successfully”; for “α: recombinant human hemoglobin monomer α (141 amino acids), with or without heme”: “can enter into liver cancer cells (HepG2) successfully”.
